Measurements taken from patent US20040091479A1, “T-cell epitope of the papillomavirus l1 and e7 protein and use thereof in diagnostics and therapy” (priority 2000, published 2004).

Columns and labels:
[1] = system: HPV18 CVLP-stimulated human T cells; experiment: Restimulating HPV18 CVLP-stimulated T cells with BLCL presenting Q38, Q39, Q46 or Q47 (example 13); type: cell-based; conditions: conclusion from FIG. 12 top right
Experimental: In analogy with example 6, human T cells (4×10^5) derived from a non-HLA-typed blood donor were stimulated with HPV18L1ΔCDIE71-53DI CVLPs and HPV18L1ΔCDIE71-60DI CVLPs and harvested.
The T cells were then restimulated, at 37° C. and in 100 μl of medium, with in each case 1 μg of peptide Q38, Q39, Q46 or Q47/ml and 10^5 antigen-presenting cells (donor-identical BLCL) in the presence of 10 IU of IL2/ml. Cells which were only incubated with buffer served as the negative control while cells which were incubated with the HPV18 L1 peptide pool or the E7 peptide pool served as positive controls.
(§1) 1 μl of monensin was added after an hour. The cells were then incubated at 37° C. for a further 5 hours. After that, the cells were fixed and permeabilized and stained with α-human CD8/APC, with α-human CD4/PerCP and with α-human IFNγ/FITC. The labeling of the cells was examined in a FACScan Calibur and the results of the measurements were analyzed using Cellquest software.

[2] = system: CVLP-stimulated T cells (CD4-positive); experiment: Restimulating HPV16 CVLP-stimulated T cells with BLCL presenting HPV16 peptide pools (example 7); type: cell-based, human; conditions: peptide common to two reactive HPV16 pools; CD4/IFNγ
Source text: (§2) In analogy with example 6, human T cells derived from a non-HLA-typed blood donor were stimulated with HPV16L1ΔC*E71-55 CVLPs and harvested.
The 20mer peptides P1 to 51 were assembled into peptide pools A to H and 1 to 7, respectively, in accordance with the following matrix
The T cells were then restimulated as described in example 6, fixed, permeabilized and stained. The analysis also took place as described in example 6.

[3] = system: peptide-stimulated CD8-positive murine T cells; experiment: Restimulating HPV16 L1 peptide-stimulated murine T cells with peptide-presenting JAWS cells (IFNγ FACScan); type: cell-based, C57BL/6 mice; conditions: for proportion of CD8-positive T cells reactive on the basis of IFNγ expression: 1 μg peptide/ml, JAWS cells, T cells of HPV16L1ΔC*E71-55 CVLP-inoculated C57BL/6 mice, FIG. 1; for T cell epitope assignment: conclusion from FIG. 1
Experimental: Murine T cells (4×10^5) derived from HPV16L1ΔC*E71-55 CVLP-inoculated C57BL/6 mice were stimulated for 5 weeks with HPV16 L1 peptide pools at 37° C., with the weekly addition of 1 μg of each individual peptide/ml and 10^5 antigen-presenting cells (irradiated splenocytes), and harvested. The cells were subsequently restimulated, in 100 μl of medium at 37° C., with 1 μg of the peptides given on the X axis in FIG. 1/ml and 10^5 antigen-presenting cells (JAWS) in the presence of 10 IU of IL2/ml. Cells which were only incubated with buffer serve as the negative control.
After an hour, 1 μl of monensin (300 μM) was added. The cells were incubated at 37° C. for a further 5 hours. The cells were then fixed and permeabilized and stained with α-mouse CD8/PE, with α-mouse CD4/cychrome and with α-mouse interferon γ/FITC. The labeling of the cells was analyzed in a FACScan caliber and the results of the measurements were analyzed using Cellquest software.

[4] = system: peptide-stimulated murine CD8 T cells; experiment: Restimulating HPV18 peptide-stimulated murine T cells with peptide-presenting RMA cells (example 16); type: cell-based; conditions: for reactive CD8-positive T cells (IFNγ, FACScan): RMA cells as antigen-presenting cells, FIG. 15; for T cell epitope assignment: conclusion from FIG. 15
Experimental: In analogy with example 5, murine T cells derived from CVLP-inoculated mice were stimulated with L1 or E7 peptide pools in the added presence of antigen-presenting cells. The cells were then restimulated with the peptides given on the X axis in FIG. 15 (Q3 and Q4 in the upper part of FIG. 15 and L1474E71-8, E72-11 and E71-8 in the lower part of FIG. 15) and also antigen-presenting cells (RMA). Cells which were only incubated with buffer served as the negative control.
The experiment was also analyzed in analogy with example 5, with the reactive CD8-positive cells being determined by means of antibody staining and FACScan.

[5] = system: peptide-stimulated murine CD8-positive T cells; experiment: Restimulating HPV18 peptide-stimulated murine T cells with peptide-presenting LKK cells (IFNγ FACScan); type: cell-based, C3H mice; conditions: for proportion of CD8-positive T cells reactive on the basis of IFNγ expression: 1 μg peptide/ml, LKK cells, T cells of HPV18 CVLP-inoculated C3H mice, FIG. 3, 4; for T cell epitope assignment: conclusion from FIG. 3, 4
Experimental: Murine T cells (4×10^5) derived from C3H mice inoculated with HPV18 L1ΔCDIE71-53DI CVLPs and HPV18 L1ΔCDIE71-6ODI CVLPs were stimulated for 5 weeks with HPV18 L1 or E7 peptide pools at 37° C., with the weekly addition of 1 μg of each individual peptide/ml and 10^5 antigen-presenting cells (irradiated splenocytes), and harvested. The cells were then restimulated, at 37° C. and in 100 μl of medium, with 1 μg of the peptides given on the X axis in FIG. 3/ml and 10^5 antigen-presenting cells (LKK) in the presence of 10 IU of IL2/ml. Cells which were only incubated with buffer served as the negative control.
1 μl of monensin (300 μm) was added after an hour. The cells were incubated at 37° C. for a further 5 hours. The cells were then fixed and permeabilized and stained with α-mouse CD8/PE, with α-mouse CD4/cychrome and with α-mouse interferony/FITC. The labeling of the cells was analyzed in a FACScan Calibur and the results of the measurement were analyzed using Cellquest software.

[6] = system: CVLP-stimulated CD8-positive T cells; experiment: Restimulating HPV16 CVLP-stimulated T cells with BLCL presenting HPV16 peptide pools (example 14); type: cell-based, human; conditions: peptide common to two reactive HPV16 pools; CD8/IFNγ
Experimental: as §2
The T cells were then restimulated, at 37° C. and in 100 μl of medium, with the peptide pools from example 7 and 10^5 antigen-presenting cells (donor-identical BLCL) in the presence of 10 IU of IL2/ml. Use was made, in this connection, of quantities of the peptide pools which were such that 1 μg/ml was added in the case of each individual peptide. Cells which were only incubated with buffer served as the negative control, while cells which were incubated with the HPV16 L1 or E7 peptide pool served as positive controls.
as §1

CC[C@H](C)[C@H](NC(=O)[C@H](C)NC(=O)[C@@H](NC(=O)[C@H](CO)NC(=O)[C@H](CCC(N)=O)NC(=O)[C@@H](NC(=O)[C@H](Cc1ccccc1)NC(=O)[C@H](CCCNC(=N)N)NC(=O)[C@H](Cc1ccc(O)cc1)NC(=O)[C@@H](NC(=O)[C@H](CC(=O)O)NC(=O)[C@@H](NC(=O)[C@H](CC(C)C)NC(=O)[C@H](CO)NC(=O)[C@@H](NC(=O)[C@@H](NC(=O)[C@@H]1CCCN1C(=O)[C@@H]1CCCN1C(=O)[C@@H]1CCCN1C(=O)[C@@H]1CCCN1)[C@@H](C)O)[C@@H](C)O)C(C)C)[C@@H](C)O)C(C)C)C(C)C)C(=O)O [Q38]
T cell epitope assignment (cytotoxic) [1]: contain cytotoxic T cell epitopes

CC[C@H](C)[C@H](NC(=O)[C@H](C)NC(=O)[C@@H](NC(=O)[C@H](CO)NC(=O)[C@H](CCC(N)=O)NC(=O)[C@@H](NC(=O)[C@H](Cc1ccccc1)NC(=O)[C@H](CCCNC(=N)N)NC(=O)[C@@H](N)Cc1ccc(O)cc1)C(C)C)C(C)C)C(=O)N[C@H](C(=O)N[C@@H](CS)C(=O)N[C@@H](CCC(N)=O)C(=O)N[C@@H](CCCCN)C(=O)N[C@@H](CC(=O)O)C(=O)N[C@@H](C)C(=O)N[C@@H](C)C(=O)N1CCC[C@H]1C(=O)N[C@@H](C)C(=O)N[C@@H](CCC(=O)O)C(=O)N[C@@H](CC(N)=O)C(=O)O)[C@@H](C)O [Q39]
T cell epitope assignment (cytotoxic) [1]: contain cytotoxic T cell epitopes

ASSNYFPTPSGSMVTSDAQI [P27, HPV16 L1 287-306]
T cell epitope assignment [2]: contain a T helper epitope

DMVDTGFGAMDFTTLQANKS [P19, HPV16 L1 199-218]
T cell epitope assignment [2]: contain a T helper epitope
proportion of CD8-positive T cells reactive on the basis of IFNγ expression [3]: brought about a restimulation
T cell epitope assignment [3]: contain H2b-restricted cytotoxic T cell epitopes

FYHAGSSRLLTVGNPYFRVP [Q4, HPV18 L1 34-53]
reactive CD8-positive T cells (IFNγ, FACScan) [4]: brought about a restimulation
T cell epitope assignment [4]: contain an H2b-restricted cytotoxic T cell epitope

GDSLFFYLRREQMFVRHLFN [P23, HPV16 L1 243-262]
T cell epitope assignment [2]: contain a T helper epitope

GDSMFFCLRREQLFARHFWN [Q23, HPV18 L1 243-262]
proportion of CD8-positive T cells reactive on the basis of IFNγ expression [5]: brought about a restimulation
T cell epitope assignment [5]: contain H2k-restricted cytotoxic T cell epitopes

GMHGPKATL [L1474E71-8, HPV18 L1 474 and E7 1-8]
reactive CD8-positive T cells (IFNγ, FACScan) [4]: brought about a restimulation
T cell epitope assignment [4]: contain an H2b-restricted cytotoxic T cell epitope

HGPKATLQDI [E72-11, HPV18 E7 2-11]
reactive CD8-positive T cells (IFNγ, FACScan) [4]: brought about a restimulation
T cell epitope assignment [4]: contain an H2b-restricted cytotoxic T cell epitope

IFQLCKITLTADVMTYIHSM [P35, HPV16 L1 375-394]
proportion of CD8-positive T cells reactive on the basis of IFNγ expression [3]: brought about a restimulation
T cell epitope assignment [3]: contain H2b-restricted cytotoxic T cell epitopes

LELINTVIQDGDMVDTGFGA [P18, HPV16 L1 188-207]
T cell epitope assignment [2]: contain a T helper epitope
proportion of CD8-positive T cells reactive on the basis of IFNγ expression [3]: brought about a restimulation
T cell epitope assignment [3]: contain H2b-restricted cytotoxic T cell epitopes

LKKYTFWEVNLKEKFSADLD [P41, HPV16 L1 441-460]
T cell epitope assignment [6]: contain a cytotoxic T cell epitope

MHGPKATL [E71-8, HPV18 E7 1-8]
reactive CD8-positive T cells (IFNγ, FACScan) [4]: brought about a restimulation
T cell epitope assignment [4]: contain an H2b-restricted cytotoxic T cell epitope

MLDLQPETTDLYCYEQLNDS [P45, HPV16 E7 12-31]
T cell epitope assignment [6]: contain a cytotoxic T cell epitope

MSLWLPSEATVYLPPVPVSK [P1, HPV16 L1 1-20]
T cell epitope assignment [6]: contain a cytotoxic T cell epitope

NNNKILVPKVSGLQYRVFRI [P6, HPV16 L1 56-75]
T cell epitope assignment [6]: contain a cytotoxic T cell epitope

NTDDYVTRTSIFYHAGSSRL [Q3, HPV18 L1 23-42]
reactive CD8-positive T cells (IFNγ, FACScan) [4]: brought about a restimulation
T cell epitope assignment [4]: contain an H2b-restricted cytotoxic T cell epitope

PDYLQMSADPYGDSMFFCLR [Q22, HPV18 L1 232-251]
proportion of CD8-positive T cells reactive on the basis of IFNγ expression [5]: brought about a restimulation
T cell epitope assignment [5]: contain H2k-restricted cytotoxic T cell epitopes

PLGRKFLLQAGMHGDTPTLH [P43, HPV16 L1 463-473 and E7 1-9]
T cell epitope assignment [6]: contain a cytotoxic T cell epitope
proportion of CD8-positive T cells reactive on the basis of IFNγ expression [3]: brought about a restimulation
T cell epitope assignment [3]: contain H2b-restricted cytotoxic T cell epitopes

QLCLIGCKPPIGEHWGKGSP [P15, HPV16 L1 155-174]
T cell epitope assignment [2]: contain a T helper epitope

QPLGVGISGHPLLNKLDDTE [P11, HPV16 L1 111-130]
T cell epitope assignment [2]: contain a T helper epitope

SSADDLRAFQQLFLNTLSFV [Q51, HPV18 E7 78-97]
proportion of CD8-positive T cells reactive on the basis of IFNγ expression [5]: brought about a restimulation
T cell epitope assignment [5]: contain H2k-restricted cytotoxic T cell epitopes

STDEYVARTNIYYHAGTSRL [P3, HPV16 L1 23-42]
T cell epitope assignment [6]: contain a cytotoxic T cell epitope
proportion of CD8-positive T cells reactive on the basis of IFNγ expression [3]: brought about a restimulation
T cell epitope assignment [3]: contain H2b-restricted cytotoxic T cell epitopes

VGNPYFRVPAGGGNKQDIPK [Q5, HPV18 L1 45-64]
proportion of CD8-positive T cells reactive on the basis of IFNγ expression [5]: brought about a restimulation
T cell epitope assignment [5]: contain H2k-restricted cytotoxic T cell epitopes

VTVVDTTRSTNNSLCAAIST [P31, HPV16 L1 331-350]
T cell epitope assignment [2]: contain a T helper epitope

WACVGVEVGRGQPLGVGISG [P10, HPV16 L1 100-119]
T cell epitope assignment [2]: contain a T helper epitope

YCYEQLNDSSEEEDEIDGPA [P46, HPV16 E7 23-42]
T cell epitope assignment [6]: contain a cytotoxic T cell epitope

YIKGSGSTANLASSNYFPTP [P26, HPV16 L1 276-295]
T cell epitope assignment [2]: contain a T helper epitope
